Test results published in US20080248574A1, “ANTAGONISTS OF THE INTERACTION OF MELANOMA INHIBITORY ACTIVITY (MIA) AND P66SHC” (University of Pittsburgh - Of the Commonwealth System of …, priority 2007, published 2008).
Ends that are not written are not given here.

How the values were obtained:
[1] = tested on: HMB2 melanoma cells; experiment: H2O2-induced cell death in HMB2 cells, cell viability by MTT absorbance; type: cell-based, human; conditions: 20 μM polypeptide; 50 μM H2O2 two hours later; viability after 24 hours; versus H2O2-treated cells in the absence of polypeptide; p<0.05; FIG. 1
Method: FIG. 1 is a graph showing the percentage of cell viability measured by MTT absorbance in HMB2 melanoma cells that were treated with a polypeptide comprising SEQ ID NO: 1 and SEQ ID NO: 2 (TAT-peptide) and H2O2.
To determine the effect of the administration of a polypeptide comprising SEQ ID NO: 1 on H2O2-induced cell death, HMB2 cells were administered 20 μM of the polypeptide. Two hours following the polypeptide administration, the cells were treated with 50 μM of H2O2. After 24 hours, the cell viability was quantified using MTT absorbance.

[2] = tested on: MIA-expressing HMB2 human metastatic melanoma cells; experiment: Entry of FITC-labeled polypeptide into HMB2 cells (phase contrast and image capture); type: cell-based; conditions: 10 μM FITC-labeled polypeptide, 2.5 hours after addition
Method: The ability of a polypeptide comprising SEQ ID NO: 4 to enter and sensitize MIA-expressing HMB2 human metastatic melanoma cells to oxidative stress-induced death was examined. Cells were treated with 10 μM FITC-labeled polypeptide, followed by phase contrast and image capture.

polypeptide comprising SEQ ID NO: 1: Polypeptide comprising residues 41-60 of the p66shc CH2 domain (SEQ ID NO: 1) and HIV TAT (SEQ ID NO: 2) (SLGPILPPLPGDDSPTTLCSYGRKKRRQRR)
sensitivity of H2O2-treated cells to H2O2-death (cell viability, MTT absorbance) [1]: significantly increased

polypeptide comprising SEQ ID NO: 4: Polypeptide comprising a BRR domain (HIV TAT), spacer and CH2 domain portion of p66shc; FITC-labeled in the test (YGRKKRRQRRGGGSLGPILPPLPGDDSPTTLCS; also: FITC label, position not given here)
transduction of cells with the peptide [2]: the majority of the cells were transduced
